# Data taken from patent EP0598753B1, “MANGANESE COMPLEXES OF NITROGEN-CONTAINING MACROCYCLIC LIGANDS EFFECTIVE AS CATALYSTS FOR DISMUTATING SUPEROXIDE” (MONSANTO COMPANY, priority 1991, dated 1993).
# “Also recorded” adds a separate entry of the source.
# What was measured:
# [1] = test system: human aortic endothelial cells (HAE cells)
# Description: Human peripheral blood neutrophils were isolated from fresh venous blood of healthy volunteers. EDTA anticoagulated blood was separated using a single step density centrifugation (Polymorphprep; Nycomed Pharma, Oslo, Norway) followed by several washes in Hank's balanced salt solution supplemented with 0.5% BSA (Bovine Serum Albumin) (HBSSB) and the hypertonic lysis of erythrocytes. Neutrophils were counted via Coulter electronic particle counter and resuspended in HBSSB supplemented with 25% Endothelial Basal Medium (EBM), (Clonetics Corporation, San Diego, CA) at a concentration of 5 x 10^6 polymorphonuclear leukocytes (PMN)/ml.
# The cytotoxic effects of stimulated neutrophils on endothelial cells were determined using a ^51Cr-release assay as previously described (Moldow, C.F., and Jacob, H.S. (1984) Methods Enzymol. 105, 378-385). Confluent monolayers of human aortic endothelial cells (HAE cells; Clonetics) grown in 96-well culture plates were prelabeled with 1 µCi/well ^51Cr (Na2 ^51Cr2O4, New England Nuclear, Boston, MA). The cells were incubated for 18 h at 37°C, then cytokine-activated with 10 Units/well human recombinant tumor necrosis factor-a (hrTNF-α; Monsanto Company, St. Louis, MO) for 4 h at 37°C. The cells were washed twice to remove unincorporated radioactivity with Hank's balanced salt solution supplemented with 0.5% BSA. To assess inhibition of PMN-mediated cytotoxicity, manganese(II) complexes at various doses (0-300 µM) were added to five replicate wells/dose of HAE cells immediately prior to the addition of PMN. Suspensions of PMN in HBSSB supplemented with 25% Endothelial Basal Medium were added to the wells at a neutrophil to endothelial cell ratio of 50:1. The PMN were allowed to adhere for 15 minutes at 37°C, primed with 125 Units/well hrTNF-α (Berkow, R.L., Wang, D., Larrick, J.W., Dodson, R.W., and Howard, T.H. (1987) J. Immunol. 139, 3783-3791; Varani, J.; Bendelow, M. J. Sealey, D. E.; Kunkel, S. L.; Gannon, D. E.; Ryan, U.S.; and Ward, P.A. (1987) Lab. Invest., 59, 292-295) for 10 minutes, and stimulated with human recombinant complement component C5a (Sigma Chemical, St. Louis, MO). […] After an additional incubation of 4 hours at 37°C, 200 µl of the 250 µl reaction volume (soluble fraction) was removed to a tube for counting. The cells were washed twice with 200 µl HBSSB (nonadherent fraction) and the washes pooled with the soluble fraction. The adherent fraction was collected by lysing the HAE cells with 200 µl 1N NaOH for 30 minutes and removing to separate tubes. Both fractions were analyzed by gamma scintillation spectrometry. The percentage cytotoxicity was calculated by the following formula: % Cytotoxicity =(cpm (soluble + nonadherent fractions))/(cpm (soluble + nonadherent + adherent fractions))x 100 [formula] Specific cytotoxicity reflects the difference between ^51Cr-release induced by stimulated PMN and unstimulated PMN. The IC50 values for the manganese(II) complexes for protection against neutrophil-mediated cytotoxicity were determined from a computer-driven logistic regression equation from a plot of % specific cytotoxicity versus the concentration of the manganese(II) complex.
# [2] = Stopped-flow kinetic analysis of catalytic dismutation of superoxide; type: biochemical; settings: for kCAT: catalytic rate constant for dismutation of superoxide, pH 8.1 and 21°C; for SOD activity (catalysis of the dismutation of superoxide), in words: stopped-flow kinetic analysis
# Excerpt: Stopped-flow kinetic analysis is an accurate and direct method for quantitatively monitoring the decay rates of superoxide in water.
# For the attainment of consistent and accurate measurements all reagents were biologically clean and metal-free. To achieve this, all buffers (Calbiochem) were biological grade, metal-free buffers and were handled with utensils which had been washed first with 0.1 N HCl, followed by purified water, followed by a rinse in a 10^-4 M EDTA bath at pH 8, followed by a rinse with purified water and dried at 65°C for several hours. Dry DMSO solutions of potassium superoxide (Aldrich) were prepared under a dry, inert atmosphere of argon in a Vacuum Atmospheres dry glovebox using dried glassware. The DMSO solutions were prepared immediately before every stopped-flow experiment. A mortar and pestle were used to grind the yellow solid potassium superoxide (~100 mg). The powder was then ground with a few drops of DMSO and the slurry transferred to a flask containing an additional 25 ml of DMSO. The resultant slurry was stirred for 1/2 h and then filtered. […] These solutions were transferred to a glovebag under nitrogen in sealed vials prior to loading the syringe under nitrogen. It should be noted that the DMSO/superoxide solutions are extremely sensitive to water, heat, air, and extraneous metals. A fresh, pure solution has a very slight yellowish tint.
# Water for buffer solutions was delivered from an in-house deionized water system to a Barnstead Nanopure Ultrapure Series 550 water system and then double distilled, first from alkaline potassium permanganate and then from a dilute EDTA solution. For example, a solution containing 1.0 g of potassium permanganate, 2 liters of water and additional sodium hydroxide necessary to bring the pH to 9.0 were added to a […] fitted with a solvent distillation head. This distillation will oxidize any trace of organic compounds in the water. The final distillation was carried out under nitrogen in a 2.5-liter flask containing 1500 ml of water from the first still and 1.0 x 10^-6M EDTA. This step will remove remaining trace metals from the ultrapure water. To prevent EDTA mist from volatilizing over the reflux arm to the still head, the 40-cm vertical arm was packed with glass beads and wrapped with insulation. This system produces deoxygenated water that can be measured to have a conductivity of less than 2.0 nanomhos/cm^2.
# The stopped-flow spectrometer system was designed and manufactured by Kinetic Instruments Inc. (Ann Arbor, MI) and was interfaced to a MAC IICX personal computer. The software for the stopped-flow analysis was provided by Kinetics Instrument Inc. and was written in QuickBasic with MacAdios drivers. Typical injector volumes (0.10 ml of buffer and 0.006 ml of DMSO) were calibrated so that a large excess of water over the DMSO solution were mixed together. […] Aqueous solutions to be mixed with the DMSO solution of superoxide were prepared using 80 mM concentrations of the Hepes buffer, pH 8.1 (free acid + Na form). One of the reservoir syringes was filled with 5 ml of the DMSO solution while the other was filled with 5 ml of the aqueous buffer solution. The entire injection block, mixer, and spectrometer cell were immersed in a thermostatted circulating water bath with a temperature of 21.0 ± 0.5°C.
# Prior to initiating data collection for a superoxide decay, a baseline average was obtained by injecting several shots of the buffer and DMSO solutions into the mixing chamber. These shots were averaged and stored as the baseline.
# [3] = test system: colonic myeloperoxidase activity; test: Mouse acetic acid-induced colitis model (colonic myeloperoxidase); type: in vivo; settings: 30 mg/kg dose, intracolonic, 30 minutes before acetic acid, tissue after 24 hours
# Description: Mouse colitis model. […] Mice were lightly anesthetized. A solution of 3% (v/v) aqueous acetic acid was instilled intracolonically via a flexible polyethylene tube. After 24 hours, the animals were killed and colonic tissue samples were obtained. Tissue samples were assessed biochemically for the neutrophil marker enzyme, myeloperoxidase (MPO). The colonic tissue samples were minced, homogenized in detergent, and sonicated. After centrifugation, enzyme activities were assayed spectrophotometrically by determining the decomposition of peroxide using o-dianisidine as the hydrogen donor. Data was obtained as the absorbance (460 nm) at 20 minutes. Test agents were given intracolonically at a dose of 30 mg/kg body weight 30 minutes before acetic acid instillation as a sonicated suspension in 0.5% aqueous methyl cellulose. Vehicle was given to appropriate acetic acid control animals. Normal tissue was obtained from control animals which received only vehicle. Colonic myeloperoxidase activities were determined as units/g wet weight of tissue. Reduction of colonic myeloperoxidase activity by test agents in acetic acid-treated mice is expressed as % inhibition (Table 2). Colonic myeloperoxidase activity correlated with the degree of tissue inflammation as assessed by visual and histological analysis.
Compound,kCAT ([2]; given as ND),"SOD activity (catalysis of the dismutation of superoxide), in words [2]",further results
"C[C@@H]1CNCCNCCNCCNCCN1.[Cl-].[Cl-].[Mn+2] [Example 4, [Manganese(II)dichloro((R)-2-Methyl-1,4,7,10,13-pentaazacyclopentadecane)]]",,,"protection against human neutrophil-mediated cytotoxicity, in words [1]: protective against human neutrophil-mediated cytotoxicity"
"[Manganese(II)(2,13-Dimethyl-3,6,9,12,18-pentaazabicyclo[12.3.1]octadeca-1(18)2,12,14,16 -pentaene)]Chloride [Example 26]",ND (Manganese(II) complex has no detectable superoxide dismutase activity. (kcat<10^6M^-1sec^-1)),,
"{Manganese(II)dichloro[(2S, 5R)-Dimethyl-1,4,7,10,13-pentaazacyclopentadecane]} [Example 33]",,,kCAT [2]: 2.9e+07 M⁻¹ s⁻¹
"[Manganese(II)(1-Methyl-1,4,7,11,14-pentaazacyclohexadecane)] Chloride [Example 16]",ND (Manganese(II) complex has no detectable superoxide dismutase activity. (kcat<10^6M^-1sec^-1)),ineffective at catalyzing the dismutation of superoxide,
"[Cl-].[Cl-].[Mn+2].c1ccc(CC2CNCCNCCNCCNCCN2)cc1 (centres unmarked) [Example 6, [Manganese(II)dichloro(2-Phenylmethyl-1,4,7,10,13-pentaazacyclopentadecane)]]",,,% Inhibition of Colonic Myeloperoxidase Activity [3]: 48%
"[Manganese(II)(1-Methyl-1,4,7,10,13-pentaazacyclopentadecane)]Chloride [Example 15]",ND (Manganese(II) complex has no detectable superoxide dismutase activity. (kcat<10^6M^-1sec^-1)),ineffective at dismutating superoxide,
"[Manganese(II)dichloro(2,3-Benzo-1,4,7,10,13-pentaazacyclopentadecane)] [Example 37]",,,kCAT [2]: 4.6e+06 M⁻¹ s⁻¹
"{Manganese(II)dichloro[(2S,8R)-Dimethyl-1,4,7,10,13-penta-azacyclopentadecane]} [Example 34]",,,kCAT [2]: 7.08e+06 M⁻¹ s⁻¹
"[Manganese(II)(1,4,8,12-Tetraazacyclopentadecane)] Chloride [Example 21]",ND (Manganese(II) complex has no detectable superoxide dismutase activity. (kcat<10^6M^-1sec^-1)),do not have SOD activity,
"[Manganese(II)1,5,9,13-Tetraazacyclohexadecane)] Chloride [Example 10]",ND (Manganese(II) complex has no detectable superoxide dismutase activity. (kcat<10^6M^-1sec^-1)),are not catalysts for the dismutation of superoxide,
"Manganese(II)(2,12-Dimethyl-3,7,11,17-tetraazabicyclo[11.3.1]heptadeca-1(17),2,11,13,15 -pentaenel] Chloride [Example 23]",ND (Manganese(II) complex has no detectable superoxide dismutase activity. (kcat<10^6M^-1sec^-1)),,
"[Manganese(II)(1,4,8,11-Tetramethyl-1,4,8,11-tetraazacyclotetradecane)]Chloride [Example 25]",ND (Manganese(II) complex has no detectable superoxide dismutase activity. (kcat<10^6M^-1sec^-1)),are not catalysts for the dismutation of superoxide,
"[Manganese(II)(2,7,12-Trimethyl-3,7,11,17-tetraazabicyclo[11.3.1]heptadeca-1(17),2, 11,13,15-pentaene)] Chloride [Example 24]",ND (Manganese(II) complex has no detectable superoxide dismutase activity. (kcat<10^6M^-1sec^-1)),,
"[Manganese(II)[1,4,7,10,13,16-hexaazacyclooctadecane)] Chloride [Example 13]",ND (Manganese(II) complex has no detectable superoxide dismutase activity. (kcat<10^6M^-1sec^-1)),are not catalysts for the dismutation of superoxide,
"[Manganese(II)(1,4,7,10,14-Pentaazacycloheptadecane)] Chloride [Example 12]",ND (Manganese(II) complex has no detectable superoxide dismutase activity. (kcat<10^6M^-1sec^-1)),ineffective at catalyzing the dismutation of superoxide,
"[Manganese(III)(1,4,7,11,14-Pentaazacycloheptadecane)] Chloride [Example 11]",ND (Manganese(II) complex has no detectable superoxide dismutase activity. (kcat<10^6M^-1sec^-1)),ineffective at catalyzing the dismutation of superoxide,
"[Manganese(II) (1,4,8,11-Tetraazacyclotetradecane)] Chloride [Example 20]",ND (Manganese(II) complex has no detectable superoxide dismutase activity. (kcat<10^6M^-1sec^-1)),are not catalysts for the dismutation of superoxide,
"[Manganese(II)(5,7,7,12,14,14-Hexamethyl-1,4,8,11-tetraazacyclotetradeca-4,11-diene)] Chloride [Example 22]",ND (Manganese(II) complex has no detectable superoxide dismutase activity. (kcat<10^6M^-1sec^-1)),,
"[Manganese(II)nitrate(1,4,7,10,13-pentaazacyclopentadecane)] Nitrate [Example 9]",,,kCAT [2]: 2.3e+07 M⁻¹ s⁻¹
"{Manganese(II)dichloro[2-(1-Naphthyl)-1,4,7,10,13-pentaazacyclopentadecane]} [Example 32]",,,kCAT [2]: 6.98e+06 M⁻¹ s⁻¹
"[Manganese(II)[1-oxa-4,7,10,13-Tetrazacyclopentadecane)] Chloride [Example 17]",ND (Manganese(II) complex has no detectable superoxide dismutase activity. (kcat<10^6M^-1sec^-1)),do not have SOD activity,
"[Manganese(II)[1,4,7,10,13,16,19-Heptaazaacycloheneicosane)]Chloride [Example 14]",ND (Manganese(II) complex has no detectable superoxide dismutase activity. (kcat<10^6M^-1sec^-1)),are not catalysts for the dismutation of superoxide,
"[Manganese(II)dichloro(trans-2,3-Cyclohexano-1,4,7,10,13-pentaazacyclopentadecane)] [Example 35]",,,kCAT [2]: 3.44e+07 M⁻¹ s⁻¹
"[Manganese(II)1,4,8,12-tetramethyl-1,4,8,12-tetraazacyclopentadecane)] Chloride [Example 18]",ND (Manganese(II) complex has no detectable superoxide dismutase activity. (kcat<10^6M^-1sec^-1)),do not have SOD activity,
MnCl2,ND (Manganese(II) complex has no detectable superoxide dismutase activity. (kcat<10^6M^-1sec^-1)),failed to perturb the second order spontaneous decay of superoxide; also recorded: has no SOD activity,
"[Manganese(II)dichloro(3,6,9,12,18-Pentaazabicyclo(12.3.1)octadecane)] [Example 38]",,,kCAT [2]: 5.28e+06 M⁻¹ s⁻¹
"[Manganese(II)1,4,7,10,13-Pentamethyl-1,4,7,10,13-pentaazacyclopentadecane)] Chloride [Example 19]",ND (Manganese(II) complex has no detectable superoxide dismutase activity. (kcat<10^6M^-1sec^-1)),ineffective at dismutating superoxide,
